Like-named read-outs stand apart in the source and are kept apart here.
Tests used:
[1] = test system: small flower umbrella sedge; experiment: Test B flooded paddy test; type: in vivo, Cyperus difformis; conditions: 1000 g ai/ha, scale 0 to 100 (0 no effect, 100 complete control)
Outline: (§1)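 Each value is a visual 0–100 response rating taken against controls 13 to 15 days after treatment in the greenhouse. Plants received formulated chemical postemergence at the 1- to 4-leaf stage or, in flooded paddy, at the 2-leaf stage.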

cocklebur = experiment: Test B pre-/postemergence herbicide test; type: in vivo, Xanthium strumarium; conditions: for Cocklebur plant response rating: postemergence
Outline: (§2)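 Evaluation is visual, comparing treated with control plants on a scale where 0 means no effect and 100 means full control. Treatments were preemergence, or postemergence on seedlings 2–18 cm tall, and held 13–15 days in the greenhouse.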

wheat = experiment: Test B postemergence herbicide test; type: in vivo, Triticum aestivum; parameters: key to Wheat plant response rating: 0 = no effect, 100 = complete control; conditions: for Wheat plant response rating: postemergence
Outline: (§3)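 Scale 0–100: zero equals no visible effect, 100 complete control, judged by eye relative to controls. Timing: 13 to 15 days in greenhouse post-treatment. Growth stage at spraying: two leaves (paddy) or one to four leaves, 2–18 cm (postemergence).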

barnyardgrass [2] = experiment: Test B pre-/postemergence herbicide test; type: in vivo, Echinochloa crus-galli; conditions: for Barnyardgrass plant response rating: postemergence
Outline: as §2

blackgrass = experiment: Test B postemergence herbicide test; type: in vivo, Alopecurus myosuroides; conditions: for Blackgrass plant response rating: postemergence
Outline: as §1

ducksalad = experiment: Test B flooded paddy test; type: in vivo, Heteranthera limosa; conditions: 1000 g ai/ha, scale 0 to 100 (0 no effect, 100 complete control)
Outline: as §1

pigweed = experiment: Test B pre-/postemergence herbicide test; type: in vivo, Amaranthus retroflexus; conditions: for Pigweed plant response rating: postemergence
Outline: (§4)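 Flooded paddy rice and barnyardgrass were treated at the 2-leaf stage; upland plantings received compound either on sown seed or on 1- to 4-leaf seedlings. All were kept 13–15 days in a greenhouse and scored visually, 0–100, relative to untreated plants.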

morningglory = experiment: Test B pre-/postemergence herbicide test; type: in vivo, Ipomoea coccinea; conditions: for pest or weed control at 125 g/ha / pest or weed control at 500 g/ha: Ipomoea, 336 h; for Morningglory plant response rating: postemergence
Outline: as §2

Surinam grass = experiment: Test B pre-/postemergence herbicide test; type: in vivo, Urochloa decumbens; conditions: for Surinam Grass plant response rating: postemergence
Outline: as §4

giant foxtail = experiment: Test B pre-/postemergence herbicide test; type: in vivo, Setaria faberi; conditions: for pest or weed control at 125 g/ha / pest or weed control at 500 g/ha: Setaria faberi, 336 h; for Foxtail, Giant plant response rating: postemergence
Outline: as §4

wild oat = experiment: Test B postemergence herbicide test; type: in vivo, Avena fatua; conditions: for Oat, Wild plant response rating: postemergence
Outline: as §3

velvetleaf = experiment: Test B pre-/postemergence herbicide test; type: in vivo, Abutilon theophrasti; conditions: for Velvetleaf plant response rating: postemergence
Outline: as §4

lambsquarters = experiment: Test B pre-/postemergence herbicide test; type: in vivo, Chenopodium album; conditions: for pest or weed control at 125 g/ha / pest or weed control at 500 g/ha: Chenopodium album, 336 h; for Lambsquarters plant response rating: postemergence
Outline: as §4

rice = experiment: Test B flooded paddy test; type: in vivo, Oryza sativa; conditions: 1000 g ai/ha, scale 0 to 100 (0 no effect, 100 complete control)
Outline: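 After treating 2-leaf paddy plants or 2–18 cm postemergence plants (1 to 4 leaves) with formulated chemical, researchers kept them in a greenhouse for 13–15 days. Effects were judged visually versus controls: 0 indicates none, 100 total control.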

barnyardgrass [3] = experiment: Test B flooded paddy test; type: in vivo, Echinochloa crus-galli; conditions: 1000 g ai/ha, scale 0 to 100 (0 no effect, 100 complete control)
Outline: as §1

[4] = Postemergence, 500 g ai/ha, visual rating after 13 to 15 days, scale 0 (no effect) to 100 (complete control)
[5] = 125 g ai/ha, 0 is no effect, 100 is complete control, preemergence
[6] = 125 g ai/ha, visual rating, scale 0 (no effect) to 100 (complete control)
[7] = 500 g ai/ha, visual rating, 0 = no effect, 100 = complete control, preemergence
[8] = 500 g ai/ha, scale 0 to 100, 0 is no effect, 100 is complete control

CCn1nc(C(C)(C)C)cc1C(=O)Nc1cccc(C(=O)NCC(F)(F)F)c1 [Compound 43, 3-(1,1-dimethylethyl)-1-ethyl-N-[3-[[(2,2,2-trifluoroethyl)amino]carbonyl]-phenyl]-1H-pyrazole-5-carboxamide]
pest or weed control at 1000 g/ha ([1]; Cyperus difformis, 336 h, visual rating, 13 to 15 days, read-out: Sedge, Umbrella plant response rating): 70%
pest or weed control at 125 g/ha (cocklebur; Xanthium strumarium, post-emergence, Postemergence, 125 g ai/ha, scale 0 (no effect) to 100 (complete control), read-out: Cocklebur plant response rating): 10%
pest or weed control at 500 g/ha (cocklebur; Xanthium strumarium, post-emergence, Postemergence, 500 g ai/ha, visual rating after 13 to 15 days, scale 0 (no effect) to 100 (complete control), read-out: Plant response rating, Cocklebur): 90%
pest or weed control at 500 g/ha (cocklebur; Xanthium strumarium, pre-emergence, Preemergence, 500 g ai/ha, scale 0 to 100, read-out: Cocklebur plant response rating): 10%
Plant response rating, Wheat (wheat; [4]): 30
pest or weed control at 125 g/ha (barnyardgrass [2]; Echinochloa crus-galli, post-emergence, Postemergence, 125 g ai/ha, scale 0 (no effect) to 100 (complete control), read-out: Barnyardgrass plant response rating): 20%
pest or weed control at 500 g/ha (barnyardgrass [2]; Echinochloa crus-galli, post-emergence, Postemergence, 500 g ai/ha, visual rating after 13 to 15 days, scale 0 (no effect) to 100 (complete control), read-out: Plant response rating, Barnyardgrass): 70%
pest or weed control at 500 g/ha (barnyardgrass [2]; Echinochloa crus-galli, pre-emergence, Preemergence, 500 g ai/ha, scale 0 to 100, read-out: Barnyardgrass plant response rating): 100%
pest or weed control at 125 g/ha (blackgrass; Alopecurus myosuroides, post-emergence, 336 h, Postemergence, 125 g ai/ha, scale 0 (no effect) to 100 (complete control), read-out: Blackgrass plant response rating): 20%
Plant response rating, Blackgrass (blackgrass; [4]): 20
pest or weed control at 1000 g/ha (ducksalad; Heteranthera limosa, 336 h, visual rating, 13 to 15 days, read-out: Ducksalad plant response rating): 70%
pest or weed control at 500 g/ha (pigweed; Amaranthus retroflexus, post-emergence, 336 h, Postemergence, 500 g ai/ha, visual rating after 13 to 15 days, scale 0 (no effect) to 100 (complete control), read-out: Plant response rating, Pigweed): 100%
pest or weed control at 500 g/ha (pigweed; Amaranthus retroflexus, pre-emergence, 336 h, Preemergence, 500 g ai/ha, scale 0 to 100, read-out: Pigweed plant response rating): 100%
pest or weed control at 125 g/ha (pigweed; Amaranthus retroflexus, pre-emergence, 336 h, preemergence, 125 g ai/ha, 0 to 100 scale, 0 is no effect, 100 is complete control, read-out: Plant response rating, Pigweed): 100%
pest or weed control at 125 g/ha (morningglory; post-emergence, Postemergence, 125 g ai/ha, scale 0 (no effect) to 100 (complete control), read-out: Morningglory plant response rating): 80%
pest or weed control at 500 g/ha (morningglory; post-emergence, Postemergence, 500 g ai/ha, visual rating after 13 to 15 days, scale 0 (no effect) to 100 (complete control), read-out: Plant response rating, Morningglory): 100%
pest or weed control at 500 g/ha (morningglory; pre-emergence, Preemergence, 500 g ai/ha, scale 0 to 100, read-out: Morningglory plant response rating): 10%
pest or weed control at 125 g/ha (morningglory; pre-emergence, preemergence, 125 g ai/ha, 0 to 100 scale, 0 is no effect, 100 is complete control, read-out: Plant response rating, Morningglory): 0%
pest or weed control at 500 g/ha (Surinam grass; Urochloa decumbens, post-emergence, Postemergence, 500 g ai/ha, visual rating after 13 to 15 days, scale 0 (no effect) to 100 (complete control), read-out: Plant response rating, Surinam Grass): 80%
pest or weed control at 500 g/ha (Surinam grass; Urochloa decumbens, pre-emergence, Preemergence, 500 g ai/ha, scale 0 to 100, read-out: Surinam Grass plant response rating): 50%
pest or weed control at 125 g/ha (Surinam grass; Urochloa decumbens, pre-emergence, preemergence, 125 g ai/ha, 0 to 100 scale, 0 is no effect, 100 is complete control, read-out: Plant response rating, Surinam Grass): 30%
pest or weed control at 125 g/ha (giant foxtail; post-emergence, Postemergence, 125 g ai/ha, scale 0 (no effect) to 100 (complete control), read-out: Foxtail, Giant plant response rating): 30%
pest or weed control at 500 g/ha (giant foxtail; post-emergence, Postemergence, 500 g ai/ha, visual rating after 13 to 15 days, scale 0 (no effect) to 100 (complete control), read-out: Plant response rating, Foxtail, Giant): 50%
pest or weed control at 500 g/ha (giant foxtail; pre-emergence, Preemergence, 500 g ai/ha, scale 0 to 100, read-out: Foxtail, Giant plant response rating): 80%
pest or weed control at 125 g/ha (giant foxtail; pre-emergence, preemergence, 125 g ai/ha, 0 to 100 scale, 0 is no effect, 100 is complete control, read-out: Plant response rating, Foxtail, Giant): 10%
pest or weed control at 125 g/ha (wild oat; Avena fatua, post-emergence, 336 h, Postemergence, 125 g ai/ha, scale 0 (no effect) to 100 (complete control), read-out: Oat, Wild plant response rating): 10%
Plant response rating, Oat, Wild (wild oat; [4]): 30
pest or weed control at 500 g/ha (velvetleaf; Abutilon theophrasti, post-emergence, 336 h, Postemergence, 500 g ai/ha, visual rating after 13 to 15 days, scale 0 (no effect) to 100 (complete control), read-out: Plant response rating, Velvetleaf): 90%
pest or weed control at 500 g/ha (velvetleaf; Abutilon theophrasti, pre-emergence, 336 h, Preemergence, 500 g ai/ha, scale 0 to 100, read-out: Velvetleaf plant response rating): 100%
pest or weed control at 125 g/ha (velvetleaf; Abutilon theophrasti, pre-emergence, 336 h, preemergence, 125 g ai/ha, 0 to 100 scale, 0 is no effect, 100 is complete control, read-out: Plant response rating, Velvetleaf): 30%
pest or weed control at 125 g/ha (lambsquarters; post-emergence, Postemergence, 125 g ai/ha, scale 0 (no effect) to 100 (complete control), read-out: Lambsquarters plant response rating): 90%
pest or weed control at 500 g/ha (lambsquarters; post-emergence, Postemergence, 500 g ai/ha, visual rating after 13 to 15 days, scale 0 (no effect) to 100 (complete control), read-out: Plant response rating, Lambsquarters): 90%
pest or weed control at 500 g/ha (lambsquarters; pre-emergence, Preemergence, 500 g ai/ha, scale 0 to 100, read-out: Lambsquarters plant response rating): 100%
pest or weed control at 125 g/ha (lambsquarters; pre-emergence, preemergence, 125 g ai/ha, 0 to 100 scale, 0 is no effect, 100 is complete control, read-out: Plant response rating, Lambsquarters): 90%
plant injury at 1000 g/ha (rice; Oryza sativa, 336 h, visual rating, 13 to 15 days, read-out: Rice plant response rating): 50%
pest or weed control at 1000 g/ha (barnyardgrass [3]; Echinochloa crus-galli, 336 h, visual rating, 13 to 15 days, read-out: Barnyardgrass plant response rating): 80%

CCC1=NN(C(C)(C)C)CC1C(=O)Nc1cc(C(=O)N(C)CC)ccc1F (racemic) [Compound 342]
Sedge, Umbrella plant response rating [1]: 70
Plant response rating (0 to 100 scale), Cocklebur (cocklebur; [5]): 40
Cocklebur plant response rating (cocklebur; [6]): 10
Plant response rating, Cocklebur (cocklebur; [7]): 90
Cocklebur plant response rating (cocklebur; [8]): 20
Wheat plant response rating (wheat; [6]): 0
Wheat plant response rating (wheat; [8]): 10
Plant response rating (0 to 100 scale), Barnyardgrass (barnyardgrass [2]; [5]): 70
Barnyardgrass plant response rating (barnyardgrass [2]; [6]): 10
Plant response rating, Barnyardgrass (barnyardgrass [2]; [7]): 100
Barnyardgrass plant response rating (barnyardgrass [2]; [8]): 20
Blackgrass plant response rating (blackgrass; [6]): 20
Blackgrass plant response rating (blackgrass; [8]): 30
Ducksalad plant response rating (ducksalad): 80
Plant response rating (0 to 100 scale), Pigweed (pigweed; [5]): 80
Pigweed plant response rating (pigweed; [6]): 40
Plant response rating, Pigweed (pigweed; [7]): 100
Pigweed plant response rating (pigweed; [8]): 80
Plant response rating (0 to 100 scale), Morningglory (morningglory; [5]): 10
Morningglory plant response rating (morningglory; [6]): 30
Plant response rating, Morningglory (morningglory; [7]): 70
Morningglory plant response rating (morningglory; [8]): 80
Plant response rating (0 to 100 scale), Surinam Grass (Surinam grass; [5]): 50
Surinam Grass plant response rating (Surinam grass; [6]): 10
Plant response rating, Surinam Grass (Surinam grass; [7]): 100
Surinam Grass plant response rating (Surinam grass; [8]): 20
Plant response rating (0 to 100 scale), Foxtail, Giant (giant foxtail; [5]): 40
Foxtail, Giant plant response rating (giant foxtail; [6]): 20
Plant response rating, Foxtail, Giant (giant foxtail; [7]): 90
Foxtail, Giant plant response rating (giant foxtail; [8]): 50
Oat, Wild plant response rating (wild oat; [6]): 20
Oat, Wild plant response rating (wild oat; [8]): 30
Plant response rating (0 to 100 scale), Velvetleaf (velvetleaf; [5]): 70
Velvetleaf plant response rating (velvetleaf; [6]): 20
Velvetleaf plant response rating (velvetleaf; [8]): 50
Plant response rating (0 to 100 scale), Lambsquarters (lambsquarters; [5]): 80
Lambsquarters plant response rating (lambsquarters; [6]): 60
Plant response rating, Lambsquarters (lambsquarters; [7]): 100
Lambsquarters plant response rating (lambsquarters; [8]): 100
Rice plant response rating (rice): 70
Barnyardgrass plant response rating (barnyardgrass [3]): 90

Reference: US20060069132A1, “Azolecarboxamide herbicides” (priority 2004, published 2006)
